In brackets after ≈: the same amount, converted by molar mass. Like-named read-outs stand apart in the source and are kept apart here.
Assays:
[1] = Solubility of 1PBC in aqueous solution; type: physicochemical
[2] = molecular target: T1, mouse TMEM16A mutant I551A (Mus musculus, UniProt Q8BHY3, I551A); assay: Inside-out patch recording of 1PBC block, constitutively active mutant I551A; type: cell-based; conditions: for remaining activity at 3 µM: 3 µM 1PBC; for remaining activity at 10 µM: 10 µM 1PBC; for remaining activity at 30 µM: 30 µM 1PBC
T1 construct: expressed in transfected cells; host or cells: HEK293T
T1 sequence (Q8BHY3 1-960 I551A): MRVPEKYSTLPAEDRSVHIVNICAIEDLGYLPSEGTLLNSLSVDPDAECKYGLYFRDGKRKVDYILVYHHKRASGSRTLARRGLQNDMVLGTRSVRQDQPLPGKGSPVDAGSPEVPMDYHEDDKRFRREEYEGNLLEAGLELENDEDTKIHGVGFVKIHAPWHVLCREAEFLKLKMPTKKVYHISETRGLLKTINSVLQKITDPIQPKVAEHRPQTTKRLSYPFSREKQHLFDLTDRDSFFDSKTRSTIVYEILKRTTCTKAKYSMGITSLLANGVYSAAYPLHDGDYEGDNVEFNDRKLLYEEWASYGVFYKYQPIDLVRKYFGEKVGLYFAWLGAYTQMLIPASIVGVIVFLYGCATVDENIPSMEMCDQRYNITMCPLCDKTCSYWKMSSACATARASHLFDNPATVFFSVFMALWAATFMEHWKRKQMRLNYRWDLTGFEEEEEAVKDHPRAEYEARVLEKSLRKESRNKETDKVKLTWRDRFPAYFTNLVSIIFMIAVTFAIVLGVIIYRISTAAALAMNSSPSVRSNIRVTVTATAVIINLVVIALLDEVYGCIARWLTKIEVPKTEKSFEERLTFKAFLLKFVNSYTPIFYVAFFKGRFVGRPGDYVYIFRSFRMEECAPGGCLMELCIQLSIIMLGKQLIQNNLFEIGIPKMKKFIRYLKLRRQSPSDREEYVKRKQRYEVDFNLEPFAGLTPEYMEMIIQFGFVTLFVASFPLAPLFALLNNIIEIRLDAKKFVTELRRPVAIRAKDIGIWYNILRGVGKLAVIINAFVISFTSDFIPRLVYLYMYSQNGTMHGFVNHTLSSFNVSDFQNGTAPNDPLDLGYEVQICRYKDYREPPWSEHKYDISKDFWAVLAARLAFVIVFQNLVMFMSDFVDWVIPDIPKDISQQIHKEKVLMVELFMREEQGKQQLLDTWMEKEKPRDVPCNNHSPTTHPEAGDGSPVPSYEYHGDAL
Description: HEK293T cells (ATCC CRL-1573) were maintained in Dulbecco’s modified Eagle’s medium (DMEM; Sigma-Aldrich) supplemented with 10 U ml^−1 penicillin, 0.1 mg ml^−1 streptomycin (Sigma-Aldrich), 2 mM L-glutamine (Sigma-Aldrich), and 10% FBS (Sigma-Aldrich) in a humidified atmosphere containing 5% CO2 at 37 °C. HEK293S GnTI^− cells (ATCC CRL-3022) were maintained in HyClone HyCell TransFx-H medium (GE Healthcare) supplemented with 10 U ml^−1 penicillin, 0.1 mg ml^−1 streptomycin, 4 mM L-glutamine, 0.15% poloxamer 188 (Sigma-Aldrich), and 1% FBS in an atmosphere containing 5% CO2 at 185 rpm at 37 °C. The ac splice variant of mouse TMEM16A (UniProt ID: Q8BHY3), mouse TMEM16B (UniProt ID: Q8CFW1), or mouse TMEM16F (UniProt ID: Q6P9J9) bearing a 3C cleavage site, a Venus YFP, a Myc tag, and a Streptavidin-binding peptide (SBP) downstream of the open reading frame in a modified pcDNA3.1 vector (Invitrogen) were used as described previously[21],[31]. Mutations were introduced using a modified QuikChange method[58] and were verified by sequencing.
HEK293T cells were transfected with 3–4 μg DNA per 6 cm Petri dish using the calcium phosphate co-precipitation method and were used within 24–96 h after transfection. Recordings were performed on inside-out patches excised from HEK293T cells expressing the construct of interest. Patch pipettes were pulled from borosilicate glass capillaries (O.D. 1.5 mm, I.D. 0.86 mm, Sutter Instrument) and were fire-polished with a microforge (Narishige) before use. Pipette resistance was typically 3–8 MΩ when filled with the recording solutions detailed below. Seal resistance was typically 4 GΩ or higher. Voltage-clamp recordings were made using Axopatch 200B, Digidata 1550, and Clampex 10.7 (Molecular Devices). Analog signals were filtered with the in-built 4-pole Bessel filter at 10 kHz and were digitized at 20 kHz. Solution exchange was achieved using a gravity-fed system through a theta glass pipette mounted on an ultra-fast piezo-driven stepper (Siskiyou). […] All recordings were performed at 20 °C.
A symmetrical ionic condition was used throughout. Stock solution with Ca^2+-EGTA contained 150 mM NaCl, 5.99 mM Ca(OH)2, 5 mM EGTA, and 10 mM HEPES at pH 7.40. Stock solution with EGTA contained 150 mM NaCl, 5 mM EGTA, and 10 mM HEPES at pH 7.40. Free Ca^2+ concentrations were adjusted by mixing the stock solutions at the required ratios calculated using the WEBMAXC program (http://web.stanford.edu/~cpatton/webmaxcS.htm). Patch pipettes were filled with the stock solution with Ca^2+-EGTA, which has a free Ca^2+ concentration of 1 mM. 1PBC (ChemBridge) stock was reconstituted in anhydrous DMSO (Sigma-Aldrich) at 100 mM and stored at −20 °C. Working solutions with 1PBC were prepared by serial dilution. Unless otherwise stated, experiments were performed at a saturating Ca^2+ concentration as shown in Supplementary Table 1 and the primary data were corrected for current rundown as described previously[21],[25].
Concentration-response relations, obtained from the ratio of the I-V plots before and after the application of the blocker, were fitted to the Hill equation,1 I/Imax=1/1+IC50/[blocker]^h where I/Imax is the normalized current responses, IC50 defines the concentration at which inhibition is at its half-maximum, and h is the Hill coefficient.

[3] = 0 mV, 2 µM Ca2+, read-out: I/Imax
[4] = 0 mV, zero Ca2+, read-out: I/Imax

Which results are given for `N#Cc1c(C(F)(F)F)cc(O)n2c1nc1ccccc12` [1PBC]?
solubility [1]: ~100 µM (≈ 27.7 µg/mL); I/Imax_+80mV ([2]; 0Ca, 3 μM 1PBC): 0.9297; I/Imax_-80mV ([2]; 0Ca, 3 μM 1PBC): 0.9659; I/Imax_+80mV ([2]; 0Ca, 10 μM 1PBC): 0.7725; I/Imax_-80mV ([2]; 0Ca, 10 μM 1PBC): 0.8504; I/Imax_+80mV ([2]; 0Ca, 30 μM 1PBC): 0.5277; I/Imax_-80mV ([2]; 0Ca, 30 μM 1PBC): 0.6475; I/Imax_+80mV ([2]; 0Ca, 100 μM 1PBC): 0.2921; I/Imax_-80mV ([2]; 0Ca, 100 μM 1PBC): 0.3933; remaining activity at 1 µM ([2]; 1 µM 1PBC, 0 mV, 2 µM Ca2+, read-out: I/Imax): 80.9%; remaining activity at 3 µM [2, 3]: 60.1%; remaining activity at 3 µM [2, 4]: 93.2%; remaining activity at 10 µM [2, 3]: 31.1%; remaining activity at 10 µM [2, 4]: 80.6%; remaining activity at 30 µM [2, 3]: 14.8%; remaining activity at 30 µM [2, 4]: 58.2%; remaining activity at 100 µM ([2]; 100 µM 1PBC, 0 mV, zero Ca2+, read-out: I/Imax): 33.3%; I/Imax_+80mV ([2]; Ca, 1 μM 1PBC): 0.7719; I/Imax_-80mV ([2]; Ca, 1 μM 1PBC): 0.9016; I/Imax_+80mV ([2]; Ca, 3 μM 1PBC): 0.5347; I/Imax_-80mV ([2]; Ca, 3 μM 1PBC): 0.7407; I/Imax_+80mV ([2]; Ca, 10 μM 1PBC): 0.2656; I/Imax_-80mV ([2]; Ca, 10 μM 1PBC): 0.4452; I/Imax_+80mV ([2]; Ca, 30 μM 1PBC): 0.1169; I/Imax_-80mV ([2]; Ca, 30 μM 1PBC): 0.2272

— article PMC9120017, “Inhibition mechanism of the chloride channel TMEM16A by the pore blocker 1PBC” (Nature Communications, 2022)
